What was measured:
[1] = target: SERT (Homo sapiens, UniProt P31645); test: hSERT radioligand binding assay (3H-citalopram); parameters: expressed in transfected cells; host or cells: HEK-293; conditions: hSERT membranes (HEK-293), 1.0 nM 3H-citalopram; for Ki: read-out: SERT pKi (converted)
Outline: (§1)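 Membranes came from HEK-293 cells stably expressing hSERT (0.5 μg protein) or hNET (1 μg), with 3H-citalopram or 3H-nisoxetine respectively. Incubation was 60 min at 22° C in Tris buffer with 120 mM NaCl and 5 mM KCl, pH 7.4, followed by filtration and scintillation counting. pKi was derived by Cheng-Prusoff from IC50 and saturation-derived Kd.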

[2] = target: NET (Homo sapiens, UniProt P23975); test: hNET radioligand binding assay (3H-nisoxetine); parameters: expressed in transfected cells; host or cells: HEK-293; conditions: hNET membranes (HEK-293), 1.0 nM 3H-nisoxetine; for Ki: read-out: NET pKi (converted)
Chain of NET (P23975 whole entry): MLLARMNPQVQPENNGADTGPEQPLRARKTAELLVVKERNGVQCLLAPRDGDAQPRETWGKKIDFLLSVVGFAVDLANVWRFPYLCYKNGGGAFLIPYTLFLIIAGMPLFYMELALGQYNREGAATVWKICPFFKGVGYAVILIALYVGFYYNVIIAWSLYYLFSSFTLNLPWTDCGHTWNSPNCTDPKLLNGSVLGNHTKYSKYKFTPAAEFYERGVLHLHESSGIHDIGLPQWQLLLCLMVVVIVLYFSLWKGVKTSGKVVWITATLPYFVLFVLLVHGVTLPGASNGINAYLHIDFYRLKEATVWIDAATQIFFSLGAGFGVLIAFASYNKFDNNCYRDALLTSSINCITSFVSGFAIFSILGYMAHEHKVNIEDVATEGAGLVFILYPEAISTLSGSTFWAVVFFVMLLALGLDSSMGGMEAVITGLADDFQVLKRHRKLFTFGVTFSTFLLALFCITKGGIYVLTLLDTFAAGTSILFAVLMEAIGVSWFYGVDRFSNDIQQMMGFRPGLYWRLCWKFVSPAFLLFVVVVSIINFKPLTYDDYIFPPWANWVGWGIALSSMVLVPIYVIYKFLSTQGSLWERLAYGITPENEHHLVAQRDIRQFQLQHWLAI
Outline: as §1

Chain of SERT (P31645 whole entry): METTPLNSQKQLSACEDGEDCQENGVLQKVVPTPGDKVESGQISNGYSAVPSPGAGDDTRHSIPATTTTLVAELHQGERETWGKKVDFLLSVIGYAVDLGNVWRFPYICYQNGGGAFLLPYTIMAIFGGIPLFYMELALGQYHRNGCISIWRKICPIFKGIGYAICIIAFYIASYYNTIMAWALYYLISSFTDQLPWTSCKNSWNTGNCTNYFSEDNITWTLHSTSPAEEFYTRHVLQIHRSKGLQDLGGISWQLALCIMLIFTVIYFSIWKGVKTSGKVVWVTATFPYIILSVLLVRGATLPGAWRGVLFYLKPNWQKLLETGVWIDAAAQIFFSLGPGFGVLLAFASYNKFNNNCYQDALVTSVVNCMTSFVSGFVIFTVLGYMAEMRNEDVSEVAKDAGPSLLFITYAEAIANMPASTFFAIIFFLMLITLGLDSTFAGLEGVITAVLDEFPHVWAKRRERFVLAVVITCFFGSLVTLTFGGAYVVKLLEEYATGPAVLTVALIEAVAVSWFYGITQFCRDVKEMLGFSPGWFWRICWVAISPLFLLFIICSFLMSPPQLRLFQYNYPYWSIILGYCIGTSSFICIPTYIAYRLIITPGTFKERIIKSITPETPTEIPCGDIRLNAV

| SMILES | Ki [1] | Ki [2] | SERT pKi [1] | NET pKi [2] |
| --- | --- | --- | --- | --- |
| Cc1cc(Cl)cc(C)c1OC(c1cncc(F)c1)C1CCNC1 [Example 2-46, 3-[(R)-(4-Chloro-2,6-dimethylphenoxy)-(S)-pyrrolidin-3-yl-methy1]-5-fluoropyridine] | ≤ 0.1 µM | ≤ 10 µM |  |  |
| Fc1cncc(C(Oc2ccc(Cl)cc2Cc2ccccc2)C2CCNC2)c1 [Example 2-47, 3-[(R)-(2-Benzy1-4-chlorophenoxy)-(S)-pyrrolidin-3-yl-methy1]-5-fluoropyridine] | ≤ 0.1 µM | ≤ 0.1 µM |  |  |
| Fc1cncc(C(Oc2c(F)ccc(F)c2Cl)C2CCNC2)c1 [Example 2-50, 3-[(S)-(2-Chloro-3,6-difluorophenoxy)-(S)-pyrrolidin-3-yl-methy1]-5-fluoropyridine] | ≤ 0.1 µM | ≤ 10 µM |  |  |
| CCc1cc(F)cc(F)c1O[C@H](c1cncc(F)c1)[C@@H]1CCNC1 [Example 2-57, 3-[(R)-(2-Ethy1-4,6-difluorophenoxy)-(S)-pyrrolidin-3-yl-methyl]-5-fluoropyridine] |  |  | ≧7.0 | ≧7.0 |
| CCc1cc(F)ccc1O[C@H](c1cncc(F)c1)[C@@H]1CCNC1 [Example 2-58, 3-[(R)-(2-Ethy1-4-fluorophenoxy)-(S)-pyrrolidin-3-yl-methyl]-5-fluoropyridine] |  |  | ≧7.0 | ≧7.0 |
| Cc1cc(Cl)ccc1O[C@H](c1cncc(F)c1)[C@H]1CCNC1 [Example 2-61, 3-[(S)-(4-Chloro-2-methylphenoxy)-(S)-pyrrolidin-3-yl-methyl]-5-fluoropyridine] | ≤ 0.1 µM | ≤ 10 µM |  |  |
| COc1ccccc1O[C@H](c1cncc(F)c1)[C@H]1CCNC1 [Example 2-63, 3-Fluoro-5-[(S)-(2-methoxyphenoxy)-(S)-pyrrolidin-3-yl-methyl]pyridine] | ≤ 10 µM | ≤ 10 µM |  |  |
| Fc1cncc([C@@H](Oc2cc(Cl)cc(Cl)c2)[C@H]2CCNC2)c1 [Example 2-66, 3-[(S)-(3,5-Dichlorophenoxy)-(S)-pyrrolidin-3-yl-methyl]-5-fluoropyridine] | ≤ 0.1 µM | ≤ 0.1 µM |  |  |
| Clc1ccc(Cl)c(O[C@@H](c2cccnc2)[C@H]2CCNC2)c1Cl [Example 2-67, 3-[(R)-(S)-Pyrrolidin-3-yl-(2,3,6-trichlorophenoxy)methyl]pyridine] | ≤ 0.1 µM | ≤ 0.1 µM |  |  |
| Fc1cc(F)c(O[C@@H](c2cccnc2)[C@H]2CCNC2)c(F)c1 [Example 2-68, 3-[(R)-(S)-Pyrrolidin-3-yl-(2,4,6-trifluorophenoxy)methyl]pyridine] | ≤ 10 µM | ≤ 10 µM |  |  |
| Fc1cc(F)c(O[C@H](c2cccnc2)[C@H]2CCNC2)c(F)c1 [Example 2-69, 3-[(S)-(S)-Pyrrolidin-3-yl-(2,4,6-trifluorophenoxy)methyl]pyridine] | ≤ 0.1 µM | ≤ 0.1 µM |  |  |
| Fc1ccc(O[C@H](c2cccnc2)[C@H]2CCNC2)c(F)c1 [Example 2-71, 3-[(S)-(2,4-Difluorophenoxy)-(S)-pyrrolidin-3-yl-methyl]pyridine] | ≤ 0.1 µM | ≤ 0.1 µM |  |  |
| Clc1cccc(Cl)c1O[C@H](c1cccnc1)[C@H]1CCNC1 [Example 2-73, 3-[(S)-(2,6-Dichlorophenoxy)-(S)-pyrrolidin-3-yl-methyl]pyridine] | ≤ 0.1 µM | ≤ 0.1 µM |  |  |
| Cc1ccc(Cl)c(OC(c2cccnc2)[C@H]2CCNC2)c1Cl (stereo partly drawn) [Example 2-74, 3-[(S)-(2,6-Dichloro-3-methylphenoxy)-pyrrolidin-3-yl-methyl]pyridine] | ≤ 0.1 µM | ≤ 0.1 µM |  |  |
| COc1ccccc1OC(c1cccnc1)[C@H]1CCNC1 (stereo partly drawn) [Example 2-81, 3-[(S)-(2-Methoxyphenoxy)-pyrrolidin-3-yl-methyl]pyridine] | ≤ 10 µM | ≤ 0.1 µM |  |  |
| Fc1cc(F)c(F)c(O[C@@H](c2nccs2)[C@H]2CCNC2)c1F [Example 5-3] |  |  | ≧5.0 | ≧5.0 |
| Fc1cc(F)c(OC(c2nccs2)C2CCNC2)c(F)c1 [Example 5-6, 2-[(R)-((S)-Pyrrolidin-3-yl-(2,4,6-trifluorophenoxy)methyl]thiazole] | ≤ 10 µM | ≤ 10 µM |  |  |
| Fc1cc(F)c(OC(c2nccs2)C2CCNC2)c(F)c1 [Example 5-7, 2-[((S)-((S)-Pyrrolidin-3-yl-(2,4,6-trifluorophenoxy)methyl]thiazole] | ≤ 0.1 µM | ≤ 0.1 µM |  |  |
| Fc1cc(F)c(Cl)c(O[C@@H](c2nccs2)[C@H]2CCNC2)c1Cl [Example 5-8] |  |  | ≧5.0 | ≧5.0 |
| Cc1cc(Cl)c(OC(c2nccs2)C2CCNC2)c(Cl)c1 [Example 5-13, 2-[(R)-(2,6-Dichloro-4-methylphenoxy)-((S)-pyrrolidin-3-yl-methyl]thiazole] | ≤ 10 µM | ≤ 10 µM |  |  |
| Cc1cc(Cl)c(O[C@H](c2nccs2)[C@H]2CCNC2)c(Cl)c1 [Example 5-14] |  |  | ≧7.0 | ≧5.0 |
| Fc1ccc(F)c(O[C@@H](c2nccs2)[C@H]2CCNC2)c1Cl [Example 5-15] |  |  | ≧7.0 | ≧5.0 |
| Cc1ccc(F)c(O[C@H](c2nccs2)C2CCNC2)c1Cl (stereo partly shown) [Example 5-17] |  |  | ≧7.0 | ≧7.0 |
| Cc1cc(Cl)ccc1O[C@@H](c1nccs1)[C@H]1CCNC1 [Example 5-22] |  |  | ≧7.0 | ≧7.0 |
| Cc1ccc(F)c(O[C@H](c2nccs2)[C@H]2CCNC2)c1Cl [Example 5-23] |  |  | ≧7.0 | ≧7.0 |
| Cc1ccccc1O[C@@H](c1nccs1)[C@H]1CCNC1 [Example 5-24] |  |  | ≧7.0 | ≧5.0 |
| Cc1ccccc1O[C@H](c1nccs1)[C@H]1CCNC1 [Example 5-25] |  |  | ≧7.0 | ≧7.0 |
| Clc1cc(Cl)cc(O[C@H](c2nccs2)[C@H]2CCNC2)c1 [Example 5-27] |  |  | ≧7.0 | ≧7.0 |

The next lines start with results.

| Ki [1] | Ki [2] | SMILES | SERT pKi [1] | NET pKi [2] |
| --- | --- | --- | --- | --- |
| ≤ 10 µM | ≤ 10 µM | Fc1cc(F)c(O[C@@H](c2ccncc2)[C@H]2CCNC2)c(F)c1 [Example 3-1, 4-[(R)-(S)-Pyrrolidin-3-yl-(2,4,6-trifluorophenoxy)methyl]pyridine] |  |  |
| ≤ 0.1 µM | ≤ 0.1 µM | Fc1cc(F)c(O[C@H](c2ccncc2)[C@H]2CCNC2)c(F)c1 [Example 3-2, 4-[(S)-(S)-Pyrrolidin-3-yl-(2,4,6-trifluorophenoxy)methyl]pyridine] |  |  |
| ≤ 10 µM | ≤ 10 µM | Fc1ccc(OC(c2ccncc2)[C@H]2CCNC2)c(F)c1 (stereo partly drawn) [Example 3-3, 4-[(S)-(2,4-Difluorophenoxy)-pyrrolidin-3-yl-methyl]pyridine] |  |  |
| ≤ 0.1 µM | ≤ 0.1 µM | Clc1cccc(Cl)c1O[C@H](c1ccncc1)[C@H]1CCNC1 [Example 3-5, 4-[(S)-(2,6-Dichlorophenoxy)-(S)-pyrrolidin-3-yl-methyl]pyridine] |  |  |
| ≤ 0.1 µM | ≤ 0.1 µM | Cc1ccc(Cl)c(O[C@H](c2ccncc2)[C@H]2CCNC2)c1Cl [Example 3-7, 4-[(S)-(2,6-Dichloro-3-methylphenoxy)-(S)-pyrrolidin-3-yl-methyl]pyridine] |  |  |
| ≤ 0.1 µM | ≤ 10 µM | Fc1ccc(OC(c2nccs2)C2CCNC2)c(F)c1F [Example 5-1, 2-[(R)-((S)-Pyrrolidin-3-yl-(2,3,4-trifluorophenoxy)methyl]thiazole] |  |  |
|  | ≤ 0.1 µM | Fc1ccc(OC(c2nccs2)C2CCNC2)c(F)c1F [Example 5-2, 2-[((S)-((S)-Pyrrolidin-3-yl-(2,3,4-trifluorophenoxy)methyl]thiazole] | ≧7.0 |  |
| ≤ 10 µM | ≤ 0.1 µM | Fc1cc(F)c(F)c(OC(c2nccs2)C2CCNC2)c1F [Example 5-4, 2-[((S)-((S)-Pyrrolidin-3-yl-(2,3,5,6-tetrafluorophenoxy)methyl]thiazole] |  |  |
| ≤ 0.1 µM | ≤ 0.1 µM | Fc1cc(F)c(Cl)c(OC(c2nccs2)C2CCNC2)c1Cl [Example 5-9, 2-[((S)-(2,6-Dichloro-3,5-difluorophenoxy)-((S)-pyrrolidin-3-yl-methyl]thiazole] |  |  |
| ≤ 10 µM | ≤ 10 µM | Fc1cc(Cl)c(OC(c2nccs2)C2CCNC2)c(Cl)c1 [Example 5-10, 2-[(R)-(2,6-Dichloro-4-fluorophenoxy)-((S)-pyrrolidin-3-yl-methyl]thiazole] |  |  |
| ≤ 0.1 µM |  | Fc1cc(Cl)c(OC(c2nccs2)C2CCNC2)c(Cl)c1 [Example 5-11, 2-[((S)-(2,6-Dichloro-4-fluorophenoxy)-((S)-pyrrolidin-3-yl-methyl]thiazole] |  | ≧5.0 |
| ≤ 0.1 µM | ≤ 0.1 µM | Fc1ccc(F)c(OC(c2nccs2)C2CCNC2)c1Cl [Example 5-16, 2-[((S)-(2-Chloro-3,6-difluorophenoxy)-((S)-pyrrolidin-3-yl-methyl]thiazole] |  |  |
| ≤ 0.1 µM | ≤ 0.1 µM | Cc1ccc(F)c(OC(c2nccs2)C2CCNC2)c1Cl [Example 5-18, 2-[(R)-(2-Chloro-6-fluoro-3-methylphenoxy)-((S)-pyrrolidin-3-yl-methyl]thiazole] |  |  |
| ≤ 0.1 µM | ≤ 10 µM | Fc1ccc(O[C@H](c2nccs2)[C@H]2CCNC2)c(Cl)c1 [Example 5-19, 2-[(S)-(2-Chloro-4-fluorophenoxy)-(S)-pyrrolidin-3-ylmethyl]thiazole] |  |  |
| ≤ 0.1 µM | ≤ 0.1 µM | Fc1ccc(OC(c2nccs2)[C@H]2CCNC2)c(Cl)c1 (stereo partly drawn) [Example 5-20, 2-[(S)-(2-Chloro-4-fluorophenoxy)-pyrrolidin-3-yl-methyl]thiazole] |  |  |
| ≤ 0.1 µM | ≤ 0.1 µM | Clc1cc(Cl)cc(OC(c2nccs2)C2CCNC2)c1 [Example 5-26, 2-[(R)-(3,5-Dichlorophenoxy)-((S)-pyrrolidin-3-yl-methyl]thiazole] |  |  |
